PubChem BioAssay (NCI)
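1) Cells in 96-well plates. 2) Compound, 48 h, 5 concentrations. 3) Linear interpolation between surrounding doses. 4) Unreached endpoint = highest concentration. TGI: total growth inhibition.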

Tests used:
Assay in all cases: NCI tumour cell line growth inhibition, 48 h
ACHN renal = tested on: ACHN renal
HOP-62 NSCLC = tested on: HOP-62 NSCLC
MOLT-4 leukemia = tested on: MOLT-4 leukemia
NCI-H460 lung = tested on: NCI-H460 lung
NCI/ADR-RES ovarian = tested on: NCI/ADR-RES ovarian
RPMI-8226 leukemia = tested on: RPMI-8226 leukemia
SF-295 CNS = tested on: SF-295 CNS
SK-MEL-2 melanoma = tested on: SK-MEL-2 melanoma
SK-MEL-28 melanoma = tested on: SK-MEL-28 melanoma
UACC-257 melanoma = tested on: UACC-257 melanoma
UACC-62 melanoma = tested on: UACC-62 melanoma

Row | Compound | TGI (ACHN renal) [µM] | TGI (HOP-62 NSCLC) [µM] | TGI (MOLT-4 leukemia) [µM] | TGI (NCI-H460 lung) [µM] | TGI (NCI/ADR-RES ovarian) [µM] | TGI (RPMI-8226 leukemia) [µM] | TGI (SF-295 CNS) [µM] | TGI (SK-MEL-2 melanoma) [µM] | TGI (SK-MEL-28 melanoma) [µM] | TGI (UACC-257 melanoma) [µM] | TGI (UACC-62 melanoma) [µM]
1 | C[C@H]1COC2=C1C(=O)C(=O)c1c2ccc2c1CCCC2(C)C | > 81.7 | 21.2 | > 56.2 | > 34.5 | 24 | 71.2 | 3.73 | 15.3 | 20.6 | 6.46 | 8.2
2 | CCC[C@@H]1C(=O)N=C(N)N1C(=O)OCc1ccccc1 | > 100 | > 100 | > 100 | > 100 | > 100 | > 100 | > 100 | > 100 | > 100 | > 100 | > 100
3 | Oc1cc(Br)cc2cc(Cl)cnc12 | > 68 | > 60.4 | 7.49 | 32.6 | 10 | 26 | > 48 | 95.9 | > 100 | > 100 | 6.1
4 | Cc1ccc([N+](=O)[O-])c2c(NCC(O)CO)ccnc12 (stereo not drawn) | > 100 | > 100 | > 100 | 53.2 | > 100 | > 100 | 73.9 | 53.9 | > 100 | > 100 | > 100
5 | Cc1c(C(=O)O)n2cnnc2c2ccccc12 | > 100 | > 100 | > 100 | > 100 | > 100 | > 100 | > 100 | > 100 | > 100 | > 100 | > 100
6 | OC(CC(O)(C(F)(F)F)C(F)(F)F)c1ccc(C(O)CC(O)(C(F)(F)F)C(F)(F)F)cc1 (stereo not drawn) | 27.6 | 35 | 35.8 | 31.6 | 29.6 | 48.8 | 32.5 | 38.4 | 30.6 | 32.2 | 25.2
7 | CN1CCN(C2=CC(=O)c3c(O)ccc(O)c3C2=O)CC1 | 2.88 | 2.16 | 4.75 | 3.52 | > 10 | 6.25 | 3.09 | 4.08 | 3 | 0.467 | 3.13
8 | CC(C)(C)OC(=O)NCC(=O)N1CCN(C(=O)CNC(=O)OC(C)(C)C)CC1 | > 100 | > 100 | > 100 |  | > 100 | > 100 | > 100 | > 100 | > 100 | > 100 | > 100
9 | O=C1C(=Cc2ccc(Cl)c(Cl)c2)C([O-])=C([P+](c2ccccc2)(c2ccccc2)c2ccccc2)C([O-])=C1[P+](c1ccccc1)(c1ccccc1)c1ccccc1 | 9.26 | 7.8 | 3.84 | 10.9 | 19.3 | 9.23 | 6.74 | 6.91 | 6.07 | 5.8 | 5.29
10 | Fc1cc(-c2cc(-c3ccc4c(c3)OCO4)n[nH]2)c(Cl)cc1Cl | 3.86 | 5.81 | > 50.7 | 14.6 | 12.4 | > 46.4 | 9.4 | 36.5 | 16.9 | 27.9 | 3.8
11 | [N-]=[N+]=Nc1c([N+](=O)[O-])c(=O)n2c3c(cccc13)CCC2 | 31.8 | > 100 | 5.58 | 35.1 | 45.5 | 11.5 | > 100 | 31.2 | 16.3 | 21.5 | 29.9
12 | OC1C[C@H](c2ccccc2)C2(C(O)c3ccccc3C2O)[C@@H](c2ccccc2)C1 (stereo partly drawn) | > 100 | > 100 | > 100 | > 100 | > 100 | > 100 | > 100 | > 100 | > 100 | > 100 | > 100
13 | N#CC(C#N)=C1C(=O)NC(N)=C1C#N | > 100 | > 100 | > 100 | > 100 | > 100 | > 100 | > 100 | > 100 | > 100 | > 100 | > 100
14 | COc1ccc(Nc2nc(N)c(C(=O)c3cccs3)s2)cc1 | > 100 | > 67.7 | 17.2 | 11.1 | > 100 | 21.7 | > 100 | > 51.4 | > 95.7 | 31.3 | > 54.2
15 | CCOC(=O)[C@@H]1ON2OC(OC3CCCC3(c3ccccc3)c3ccccc3)C(OC(C)=O)[C@H]3OC(=O)[C@@H]1C32 (stereo partly drawn) | 73.2 | > 100 | > 100 | > 100 | > 100 | > 100 | > 100 | > 100 | > 100 | > 100 | > 100
16 | CCOC(=O)/C=C(\C(=O)OCC)n1ccc(=O)[nH]c1=O | 23.6 | 53.6 | 12.4 | 52.2 | > 93 | 34.4 | > 100 | 50 | 33.4 | 12.3 | 31.3
17 | CC(=O)OC1COC(Nc2nc(N)n(C)c(=O)c2N=O)C(OC(C)=O)C1OC(C)=O (stereo not drawn) | > 10 | > 10 | > 10 | > 10 | > 10 | > 10 | > 10 | > 10 | > 10 | > 10 | > 10
18 | O=C1CC2CCC(C1)S2=O (stereo not drawn) |  | > 100 | > 100 | > 100 | > 100 | > 100 | > 100 | > 100 | > 100 | > 100 | > 100
19 | CC1(C)CCc2c(c(N=Nc3ccc(F)cc3)c3ccccc3c2O)O1 | > 100 | 57.3 | > 100 | 63.4 | > 100 | > 100 | 49.8 | 93 | > 100 | 41.1 | 31.3

Row | Compound | TGI (ACHN renal) [µM] | TGI (HOP-62 NSCLC) [µM] | TGI (MOLT-4 leukemia) [µM] | TGI (NCI-H460 lung) [µM] | TGI (NCI/ADR-RES ovarian) [µM] | TGI (RPMI-8226 leukemia) [µM] | TGI (SF-295 CNS) [µM] | TGI (SK-MEL-2 melanoma) [µM] | TGI (SK-MEL-28 melanoma) [µM] | TGI (UACC-257 melanoma) [µM] | TGI (UACC-62 melanoma) [µM]
20 | CCCCCCCCCCCCCC(=O)N(CCCCCCCCC)CC(O)C(O)C(OC1OC(CO)C(O)C(O)C1O)C(O)CO (stereo not drawn) | 30.5 | 47.4 | 44.9 | 39.1 | 37.7 | 52.1 | 41.2 | 59 | 33.6 | 32.1 | 38.2
21 | CC(=O)/C(=C/N1CCNC1=S)C(=O)Nc1ccccc1C | > 100 | > 100 | > 100 | > 100 | > 100 | > 100 | > 100 | > 100 | > 100 | > 100 | > 100
22 | O=c1[nH]c(=S)c2cc3c(=S)[nH]c(=O)n(CCO)c3nc2n1CCO | > 100 | > 100 | > 100 | > 100 | > 100 | > 100 | > 100 | > 100 | > 100 | > 100 | 
23 | O=C(O)CCC(NC(=O)c1ccc(Nc2nc3cc(C(F)(F)F)ccc3nc2C(=O)O)cc1)C(=O)O (stereo not drawn) | > 100 | > 100 | > 100 | > 100 | > 100 | > 100 | > 100 | > 100 | > 100 | > 100 | > 100
24 | CN(C)CCCNCc1cccc2ccccc12 | > 100 | > 100 | > 100 | > 100 | > 100 | > 100 | > 100 | > 100 | > 100 | > 100 | > 100
25 | NC(N)=NCCCC(NC(=O)OCCCCn1ccc(N)nc1=O)C(=O)O (stereo not drawn) | > 100 | > 100 | > 100 | > 100 | > 100 | > 100 | > 100 | > 100 | > 100 | > 100 | > 100
26 | CC1=NN(c2nc(N)nc(CF)n2)C(C)(C)C1 | > 100 | > 100 | > 100 | > 100 | > 100 | > 100 | > 100 | > 100 | > 100 | > 100 | > 100
27 | [N-]=[N+]=C(C(=O)N1CCCC1=O)S(=O)(=O)c1ccccc1 | > 100 | > 100 | > 100 | > 100 | > 100 | > 100 | > 100 | > 100 | > 100 | > 100 | > 100
28 | Cc1sc2nc3n(c(=O)c2c1C)N=CN(c1ccc(F)cc1)C3 | > 100 | > 100 | > 100 | > 100 | > 100 | > 100 | > 100 | > 100 | > 100 | > 100 | > 100
29 | Cc1cc(S(=O)(=O)/N=C(/NN)NNc2cccc(C(F)(F)F)n2)c(S)cc1Cl | 50.1 | 86.4 | 45.7 | 72.8 | 46.2 | > 100 |  | 63.2 | 33.5 | 89.9 | 37
30 | COc1cc(Br)c(CC2C3=C(CCN2C(=O)C2CCC2)CC(=O)CC3)cc1O (stereo not drawn) | 86.9 | > 100 | > 100 | > 100 | > 100 | > 100 | > 100 | > 100 | > 100 | > 100 | 36.3
31 | COc1ccc(C(=O)/C=C/c2cc(O)c(O)cc2F)c(OC)c1 | > 63.3 | 31.1 | 45.1 | 17.7 | > 68.7 | 36.4 | 23.5 | 18.3 | 31.1 | 22.7 | 23.1
32 | C=CCC(C(=O)Nc1cccc2[nH]cnc12)C(=O)OCC (stereo not drawn) | > 100 | > 100 | > 100 | > 100 | > 100 | > 100 | > 100 | > 100 | > 100 | > 100 | > 100
33 | COC(=O)c1c(O)ccc2c1c1c(n2Cc2ccccc2)C(=O)c2ccccc2C1 |  | > 100 | 37.6 | > 100 | 89.9 | 32.6 | > 100 | > 100 | > 100 | > 100 | > 100
34 | CC(C)(C)[Si](C)(C)OCC1OC(n2cnc3c(=O)[nH]c(N)nc32)C(O[Si](C)(C)C(C)(C)C)C1O[Si](C)(C)C(C)(C)C (stereo not drawn) | 12.9 | 7.73 | 3.45 | 6.54 | > 100 | 3.46 | 12 | 1.01 | 3.89 | 9.4 | 4.3
35 | C[N+](C)(CCNC(=O)c1cccc2cc3ccccc3nc12)Cc1ccc([N+](=O)[O-])s1 | > 25 | > 25 | > 25 |  | > 25 | > 25 | > 25 | > 25 | > 25 | > 25 | > 25
36 | Cn1c(O)c(C=Nc2ccccc2Cl)c(=O)n(C)c1=O | 92.2 | 52.4 | 61.5 | 32.8 | > 100 | 51.7 | 80.5 | 41.1 |  | > 100 | > 100
37 | C=CC(C)(C)C(=C)C(=O)Nc1ccccc1I | > 100 | > 100 |  | > 100 | > 100 | > 100 | > 100 | > 100 | > 100 | > 100 | > 100
38 | CNc1ncnc2c1cnn2Cc1cn(COCC(O)CO)nn1 (stereo not drawn) | > 100 | > 100 |  |  | > 100 | > 100 | > 100 | > 100 | > 100 | > 100 | > 100
